Like-named read-outs stand apart in the source and are kept apart here.

For data set [1], the system named is Leucoagaricus gongylophorus. The note with it: for Growth Evaluation: 30-day incubation, median of five replicates. As for the experimental part: A similar lab trial was designed and performed to evaluate the fungicidal capacities of these botanical oils in addition to their fungistatic properties against L. gongylophorus. For this test, the plant oils were incorporated directly into the fungal growth medium at different concentrations (0.1, 1, and 5%). The growth of the fungus on this medium was evaluated after a 30-day incubation period, based on the quantity and density of the mycelium, according to the following pattern. Growth was characterized by the following measure: 5+ indicated growth identical to the control treatment (medium alone, with no plant oil treatment), or 100% growth; 4+ indicated growth equivalent to 80% of the control treatment growth; 3+ indicated 60%; 2+ indicated 40%; 1+ indicated 20%; and 0 indicated total elimination of the fungal colony.

The test system of data set [2] is Leucoagaricus gongylophorus. In words: Fungistatic inhibition: fungal inoculations exposed to wells containing botanical oils, mycelial growth toward the well vs unexposed controls. The data set is classed as cell-based. Conditions: 21 days exposure to well containing oil; mycelial growth toward well vs unexposed control.

For `COC(=O)c1ccccc1O` [Methyl Salicylate], the fungal mortality in data set [1] worked out at 100%. In addition, the “Growth Evaluation” value in data set [1] (concentration 0.1% in medium) is on record as 3+ (3+ indicated 60%); in data set [1] (concentration 1% in medium) it was 0; in data set [1] (concentration 5% in medium) it was 0. Also, the “Inhibition (%) of fungal growth (fungistatic)” value in data set [2] came out at 100%.

The record behind these values is patent US10251402B2, “Methods and compositions for controlling leaf-cutting ant populations” (ISCA Technologies, Inc., priority 2015, dated 2019).
